Measurements as given in US8796244B2, “Imidazopyridine derivatives as inhibitors of receptor tyrosine kinases” (Astex Therapeutics Ltd, priority 2008, dated 2014).
Counter-ions that a name gives are not always drawn. Like-named read-outs stand apart in the source and are kept apart here. Values belong to the compound of their own block, whether it stands above or below them.

Legend:
[1] = system: LP-1 cell line (FGF-1/Heparin induced pERK); experiment: Cell-based pERK ELISA, LP-1 cells; conditions: Homo sapiens, LP-1, read-out: LP-1 pERK ELISA (μM)
Ba/F3-TEL-FGFR3 cells = experiment: Ba/F3-TEL-FGFR3 cell proliferation assay (Alamar Blue); type: cell-based
[2] = system: parental wild-type Ba/F3 cells; experiment: Ba/F3 (WT) cell proliferation assay (Alamar Blue); type: cell-based; conditions: Mus musculus
FGFR3 = FGFR3 (Homo sapiens (Human), UniProt P22607); experiment: FGFR3 in vitro kinase inhibitory activity assay (TRF)
VEGFR2 = VEGFR2 (Homo sapiens (Human), UniProt P35968); experiment: VEGFR2 in vitro kinase inhibitory activity assay (TRF, Flt3 substrate); type: biochemical
[3] = 72 hours, Alamar Blue, read-out: BaF3-TEL-FGFR3 prolif
[4] = BaF3, 72 hours, Alamar Blue, read-out: BaF3 WT prolif
[5] = BaF3, read-out: BaF3 WT prolif, % inhibition
[6] = BaF3, at 10 μM, read-out: BaF3 WT prolif, % inhibition
[7] = 72 h, read-out: BaF3-TEL-FGFR3 prolif (μM)
[8] = BaF3, 72 h, read-out: BaF3 WT prolif (μM)

Sequence of VEGFR2 (P35968 20-1356): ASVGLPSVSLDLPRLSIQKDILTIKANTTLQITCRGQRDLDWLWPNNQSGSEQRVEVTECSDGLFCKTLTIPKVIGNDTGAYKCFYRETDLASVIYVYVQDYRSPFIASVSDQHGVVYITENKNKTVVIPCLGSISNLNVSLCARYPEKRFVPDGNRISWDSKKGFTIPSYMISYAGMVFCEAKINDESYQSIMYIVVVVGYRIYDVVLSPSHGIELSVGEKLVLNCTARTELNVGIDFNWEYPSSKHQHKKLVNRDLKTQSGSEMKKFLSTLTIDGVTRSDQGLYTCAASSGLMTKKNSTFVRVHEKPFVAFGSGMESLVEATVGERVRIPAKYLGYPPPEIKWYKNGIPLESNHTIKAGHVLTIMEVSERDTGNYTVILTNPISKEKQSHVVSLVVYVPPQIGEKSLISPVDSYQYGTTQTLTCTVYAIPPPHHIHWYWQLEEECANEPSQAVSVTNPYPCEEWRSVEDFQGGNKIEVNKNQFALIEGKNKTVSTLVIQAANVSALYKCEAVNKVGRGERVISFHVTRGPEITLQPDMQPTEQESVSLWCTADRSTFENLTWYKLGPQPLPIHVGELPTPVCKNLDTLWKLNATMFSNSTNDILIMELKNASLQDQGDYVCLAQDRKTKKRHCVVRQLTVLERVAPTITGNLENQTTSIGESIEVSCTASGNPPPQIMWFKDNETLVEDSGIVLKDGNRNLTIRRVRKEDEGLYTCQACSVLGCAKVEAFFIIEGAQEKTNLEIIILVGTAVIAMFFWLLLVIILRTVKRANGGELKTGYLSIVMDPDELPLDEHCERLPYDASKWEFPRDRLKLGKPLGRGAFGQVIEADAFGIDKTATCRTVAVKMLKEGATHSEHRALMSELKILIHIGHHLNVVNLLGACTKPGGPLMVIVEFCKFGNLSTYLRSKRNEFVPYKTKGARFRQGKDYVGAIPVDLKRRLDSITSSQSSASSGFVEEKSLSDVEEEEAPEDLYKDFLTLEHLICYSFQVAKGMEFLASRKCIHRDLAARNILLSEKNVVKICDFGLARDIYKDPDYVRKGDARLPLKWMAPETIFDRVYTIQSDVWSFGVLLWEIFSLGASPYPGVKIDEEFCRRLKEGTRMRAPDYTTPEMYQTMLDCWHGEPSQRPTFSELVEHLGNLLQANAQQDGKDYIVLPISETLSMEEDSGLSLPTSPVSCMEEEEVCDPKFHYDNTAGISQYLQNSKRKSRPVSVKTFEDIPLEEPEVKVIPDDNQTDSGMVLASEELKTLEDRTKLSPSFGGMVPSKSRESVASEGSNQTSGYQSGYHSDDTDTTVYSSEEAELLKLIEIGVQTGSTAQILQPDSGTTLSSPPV
Sequence of FGFR3 (P22607 23-806): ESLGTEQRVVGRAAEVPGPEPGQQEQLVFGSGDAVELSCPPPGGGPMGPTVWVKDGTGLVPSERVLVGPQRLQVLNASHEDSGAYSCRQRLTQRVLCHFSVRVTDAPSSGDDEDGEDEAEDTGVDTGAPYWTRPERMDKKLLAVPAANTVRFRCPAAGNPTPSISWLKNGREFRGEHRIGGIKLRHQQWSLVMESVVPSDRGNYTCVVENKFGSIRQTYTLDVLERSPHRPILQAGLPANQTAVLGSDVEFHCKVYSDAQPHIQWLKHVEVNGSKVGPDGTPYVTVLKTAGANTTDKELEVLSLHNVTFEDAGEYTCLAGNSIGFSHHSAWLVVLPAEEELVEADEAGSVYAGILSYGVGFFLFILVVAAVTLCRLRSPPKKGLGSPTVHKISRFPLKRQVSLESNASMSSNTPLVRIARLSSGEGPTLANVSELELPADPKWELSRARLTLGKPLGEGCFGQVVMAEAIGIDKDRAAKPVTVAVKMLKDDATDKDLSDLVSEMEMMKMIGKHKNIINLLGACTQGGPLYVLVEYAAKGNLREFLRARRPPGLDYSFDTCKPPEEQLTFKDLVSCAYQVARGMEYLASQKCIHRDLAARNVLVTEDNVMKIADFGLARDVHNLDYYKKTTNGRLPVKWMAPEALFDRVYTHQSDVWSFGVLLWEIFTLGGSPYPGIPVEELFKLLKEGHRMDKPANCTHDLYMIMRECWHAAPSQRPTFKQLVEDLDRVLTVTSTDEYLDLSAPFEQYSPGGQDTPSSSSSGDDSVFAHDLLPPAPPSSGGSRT

IC50 [1]: 0.018 µM
IC50 (Ba/F3-TEL-FGFR3 cells; [3]): 0.096 µM
inhibition at 0.0003 µM (FGFR3; 3 h, read-out: FGFR3 % I): 51.5%
Compound: CS(=O)(=O)N1CCC(n2cc(-c3ccn4c(-c5cccc(NC(=O)NCC(F)(F)F)c5)cnc4c3)cn2)CC1 [Example 74, 1-(3-{7-[1-(1-Methanesulfonyl-piperidin-4-yl)-1H-pyrazol-4-yl]-imidazo [1,2-a]pyridin-3-yl}-phenyl)-3-(2,2,2-trifluoro-ethyl)-urea]
IC50 [2, 4]: 0.82 µM

IC50 [1]: 0.047 µM
IC50 (Ba/F3-TEL-FGFR3 cells; [3]): 0.3 µM
inhibition at 0.001 µM (FGFR3; 3 h, read-out: FGFR3 % I): 50%
Compound: CC(C)(CO)n1cc(-c2ccn3c(-c4cccc(NC(=O)NCC(F)(F)F)c4)cnc3c2)cn1 [Example 10, 1-(3-{7-[1-(2-Hydroxy-1,1-dimethylethyl)-1H-pyrazol-4-yl]-imidazo[1,2-a]pyridin-3-yl}phenyl)-3-(2,2,2-trifluoroethyl)urea]
IC50 [2, 4]: 2.3 µM

IC50 (Ba/F3-TEL-FGFR3 cells; [3]): 0.09 µM
inhibition at 0.003 µM (FGFR3; 3 h, read-out: FGFR3 % I): 49%
Compound: CCNC(=O)Nc1cccc(-c2cnc3cc(-c4ncc(OC)cn4)ccn23)c1 [Example 230]
IC50 [2, 4]: 0.16 µM

Compound: CN(C)Cc1cnc(-c2ccn3c(-c4cccc(NC(=O)NCC(F)(F)F)c4)cnc3c2)nc1N [Compound 260]
melting point: 130 °C
inhibition at 1 µM [2, 5]: 0%

IC50 (Ba/F3-TEL-FGFR3 cells; [3]): 0.045 µM
inhibition at 0.001 µM (FGFR3; 3 h, read-out: FGFR3 % I): 45%
Compound: O=C(NCC(F)(F)F)Nc1cccc(-c2cnc3cc(-c4cnc(C(F)(F)F)nc4)ccn23)c1 [Example 232]
IC50 [2, 4]: 0.6 µM

Compound: Cn1cncc1C#Cc1ccn2c(-c3cccc(NC(N)=O)c3)cnc2c1 [Compound 267]
melting point: 162 °C
inhibition at 10 µM [2, 5]: 55%

inhibition at 0.3 µM (FGFR3; 3 h, read-out: FGFR3 % I): 49%
Compound: Cc1noc(C)c1C#Cc1ccn2c(-c3cccc(NC(=O)NCC(F)(F)F)c3)cnc2c1 [Example 112, 1-{3-[7-(3,5-Dimethyl-isoxazol-4-ylethynyl)-imidazo[1,2-a]pyridin-3-yl]-phenyl}-3-(2,2,2-trifluoro-ethyl)-urea trifluoroacetate]

Compound: CS(=O)(=O)Nc1nc(-c2ccn3c(-c4cccc(NC(=O)NCC(F)(F)F)c4)cnc3c2)ncc1F [Compound 279]
melting point: > 350 °C
inhibition at 10 µM [2, 5]: 7%

Compound: Cc1nnc(-c2ccn3c(-c4cccc(NC(=O)NC5CC5)c4)cnc3c2)o1 [Compound 157B]
melting point: 229.6 °C

inhibition at 3 µM (VEGFR2; 1 h, read-out: VEGFR2 % I): 59%
inhibition at 0.1 µM (FGFR3; 3 h, read-out: FGFR3 % I): 55%
Compound: COc1cc(NC(=O)NCC(F)(F)F)cc(-c2cnc3cc(-c4ncccn4)ccn23)c1 [Compound 304]

Compound: CC(O)c1cnc(-c2ccn3c(-c4cccc(NC(=O)NCC(F)(F)F)c4)cnc3c2)nc1 (centres unmarked) [Compound 278]
melting point: 224 °C
inhibition at 1 µM [2, 5]: 0%

IC50 [1]: 0.021 µM
IC50 (Ba/F3-TEL-FGFR3 cells; [3]): 0.029 µM
inhibition at 0.0003 µM (FGFR3; 3 h, read-out: FGFR3 % I): 39%
Compound: CC(C)N1CCC(n2cc(-c3ccn4c(-c5cccc(NC(=O)NCC(F)(F)F)c5)cnc4c3)cn2)CC1 [Example 50, 1-(3-{7-[1-(1-Isopropylpiperidin-4-yl)-1H-pyrazol-4-yl]imidazo[1,2-a]pyridin-3-yl}-phenyl)-3-(2,2,2-trifluoroethyl)urea hydrochloride]
IC50 [2, 4]: 0.71 µM

IC50 [1]: 0.12 µM
IC50 (Ba/F3-TEL-FGFR3 cells; [3]): 0.13 µM
inhibition at 0.001 µM (FGFR3; 3 h, read-out: FGFR3 % I): 60%
Compound: CC(C)(C(=O)N1CCC1)n1cc(-c2ccn3c(-c4cccc(NC(=O)NCC(F)(F)F)c4)cnc3c2)cn1 [Example 73, 1-(3-{7-[1-(2-Azetidin-1-yl-1,1-dimethyl-2-oxo-ethyl)-1H-pyrazol-4-yl]-imidazo[1,2-a]pyridin-3-yl}-phenyl)-3-(2,2,2-trifluoro-ethyl)-urea]
IC50 [2, 4]: 3.7 µM

inhibition at 1 µM (VEGFR2; 1 h, at 1 μM, read-out: VEGFR2 % I): 58%
inhibition at 0.03 µM (FGFR3; 3 h, read-out: FGFR3 % I): 39%
Compound: COC(=O)c1cc(NC(=O)NCC(F)(F)F)cc(-c2cnc3cc(-c4ccnc(C(F)(F)F)n4)ccn23)c1 [Compound 307]
inhibition at 10 µM (Ba/F3-TEL-FGFR3 cells; at 10 μM, read-out: BaF3-TEL-FGFR3 prolif, % inhibition): 25%
inhibition at 10 µM [2, 6]: 0%

Compound: O=C(NCC(F)(F)F)Nc1cccc(-c2cnc3cc(-c4ccc(NC5CCOCC5)nn4)ccn23)c1 [Example 66, 1-(3-{7-[6-(Tetrahydro-pyran-4-ylamino)-pyridazin-3-yl]-imidazo[1,2-a]pyridin-3-yl}-phenyl)-3-(2,2,2-trifluoro-ethyl)-urea bis-hydrochloride]
IC50 [1]: 0.069 µM
IC50 (Ba/F3-TEL-FGFR3 cells; [7]): 0.046 µM
IC50 [2, 8]: 1.9 µM
inhibition at 0.0003 µM (FGFR3; 3 h, read-out: FGFR3 % I): 43%

Compound: CNC(=O)c1ccc(-c2ccn3c(-c4cccc(NC(=O)NCC(F)(F)F)c4)cnc3c2)nc1 [Example 224]
IC50 (Ba/F3-TEL-FGFR3 cells; [3]): 0.033 µM
inhibition at 3 µM [2, 5]: 16%
inhibition at 0.001 µM (FGFR3; 3 h, read-out: FGFR3 % I): 61%

Compound: O=C(NCC(F)(F)F)Nc1cccc(-c2cnc3cc(C#Cc4nccn4CCO)ccn23)c1 [Compound 262]
melting point: 228 °C
inhibition at 10 µM [2, 5]: 20%

Compound: Nc1nc(-c2ccn3c(-c4cccc(NC(=O)NCC(F)(F)F)c4)cnc3c2)ncc1C(=O)O (as salt: HCl) (hydrate or solvate) [Compound 277]
melting point: > 260 °C

inhibition at 0.1 µM (FGFR3; 3 h, read-out: FGFR3 % I): 42%
Compound: Nc1nc(-c2ccn3c(-c4cc(NC(=O)NCC(F)(F)F)cc(OC5CCCC5)c4)cnc3c2)ncc1F [Compound 281]
IC50 [2, 4]: 1.4 µM

IC50 (VEGFR2): > 10000 nM
IC50 (Ba/F3-TEL-FGFR3 cells; [3]): 8.8 µM
inhibition at 0.1 µM (FGFR3; 3 h, read-out: FGFR3 % I): 39%
Compound: O=C(NCC(F)(F)F)Nc1cccc(-c2cnc3cc(-c4ccnc(-n5ccnc5)n4)ccn23)c1 [Example 215]
IC50 [2, 4]: 10 µM

IC50 (Ba/F3-TEL-FGFR3 cells; [3]): 0.027 µM
inhibition at 0.00097 µM (FGFR3; 3 h, read-out: FGFR3 % I): 66%
Compound: NC1CCN(c2ccc(-c3ccn4c(-c5cccc(NC(=O)NCC(F)(F)F)c5)cnc4c3)cn2)CC1 [Compound 330]
IC50 [2, 4]: 0.56 µM

inhibition at 3 µM (VEGFR2; 1 h, read-out: VEGFR2 % I): 43%
IC50 (Ba/F3-TEL-FGFR3 cells; [3]): 1.6 µM
inhibition at 0.03 µM (FGFR3; 3 h, read-out: FGFR3 % I): 42%
Compound: CCCCCOC(=O)Nc1nc(-c2ccn3c(-c4cccc(NC(=O)NCC(F)(F)F)c4)cnc3c2)ncc1F [Compound 331]
inhibition at 10 µM [2, 6]: 60%

inhibition at 0.31 µM (FGFR3; 3 h, read-out: FGFR3 % I): 46%
Compound: CCNC(=O)Nc1cccc(-c2cnc3cc(-c4nnc(C(F)(F)F)s4)ccn23)c1 [Example 236]

Compound: N#Cc1ccc(-c2ccn3c(-c4cccc(NC(=O)NCC(F)(F)F)c4)cnc3c2)nn1 [Compound 255]
melting point: 267 °C
inhibition at 10 µM [2, 5]: 0%

inhibition at 0.3 µM (VEGFR2; 1 h, at 0.3 μM, read-out: VEGFR2 % I): 59%
IC50 (Ba/F3-TEL-FGFR3 cells; [3]): 0.32 µM
inhibition at 0.03 µM (FGFR3; 3 h, read-out: FGFR3 % I): 67%
Compound: O=C(NCC(F)(F)F)Nc1cccc(-c2cnc3cc(-c4ccc(C(F)(F)F)nn4)ccn23)c1 [Example 229]
IC50 [2, 4]: 5.5 µM

Compound: CCNc1nnc(-c2ccn3c(-c4cccc(NC(=O)NCC(F)(F)F)c4)cnc3c2)s1 [Compound 286]
inhibition at 3 µM (Ba/F3-TEL-FGFR3 cells; read-out: BaF3-TEL-FGFR3 prolif, % inhibition): 55%
inhibition at 10 µM [2, 5]: 0%
inhibition at 0.0003 µM (FGFR3; 3 h, read-out: FGFR3 % I): 57%

Compound: O=C(NCC(F)(F)F)Nc1cccc(-c2cnc3cc(-c4ncc(CO)cn4)ccn23)c1 [Compound 276]
melting point: 222 °C
inhibition at 1 µM [2, 5]: 0%

IC50 (VEGFR2): > 10000 nM
IC50 (FGFR3; read-out: FGFR3 IC50, […]): > 1000 nM
Compound: Cc1ccc(NC(=O)NCC(F)(F)F)cc1-c1cnc2cc(-c3ncc(F)c(N)n3)ccn12 [Compound 283]

inhibition at 0.0003 µM (FGFR3; 3 h, read-out: FGFR3 % I): 38%
Compound: CC(C)(C)OC(=O)N1CCC(n2cc(-c3ccn4c(-c5cncc(NC(=O)NCC(F)(F)F)c5)cnc4c3)cn2)CC1 [Example 55, 4-[4-(3-{5-[3-(2,2,2-Trifluoro-ethyl)-ureido]-pyridin-3-yl}-imidazo[1,2-a]pyridin-7-yl)-pyrazol-1-yl]-piperidine-1-carboxylic acid tert-butyl ester]

IC50 [1]: 0.63 µM
IC50 (Ba/F3-TEL-FGFR3 cells; [3]): 0.42 µM
inhibition at 0.001 µM (FGFR3; 3 h, read-out: FGFR3 % I): 58%
Compound: O=C(NCC(F)(F)F)Nc1cccc(-c2cnc3cc(-c4ccc(N5CCNCC5)nn4)ccn23)c1 [Example 23, 1-{3-[7-(6-Piperazin-1-ylpyridazin-3-yl)-imidazo[1,2-a]pyridin-3-yl]phenyl}-3-(2,2,2-trifluoroethyl)urea trifluoroacetate]
inhibition at 10 µM [2, 6]: 0%

IC50 (Ba/F3-TEL-FGFR3 cells; [3]): 0.076 µM
inhibition at 0.00097 µM (FGFR3; 3 h, read-out: FGFR3 % I): 66%
Compound: CNc1cc(-c2ccn3c(-c4cccc(NC(=O)NCC(F)(F)F)c4)cnc3c2)ncn1 [Example 195]
IC50 [2, 4]: 5 µM

Compound: O=C(NCC(F)(F)F)Nc1cccc(-c2cnc3cc(-c4nccc(N5CCNCC5)n4)ccn23)c1 (as salt: HCl) (hydrate or solvate) [Compound 269]
melting point: 200 °C

IC50 (VEGFR2): > 3000 nM
inhibition at 0.3 µM (FGFR3; 3 h, read-out: FGFR3 % I): 36%
Compound: N#CCc1cc(NC(=O)NCC(F)(F)F)cc(-c2cnc3cc(-c4ccnc(C(F)(F)F)n4)ccn23)c1 [Compound 310]

Compound: O=C(NCC(F)(F)F)Nc1cccc(-c2cnc3cc(-c4ccc(O)cn4)ccn23)c1 [Example 202]
IC50 (Ba/F3-TEL-FGFR3 cells; [3]): 0.26 µM
inhibition at 1 µM [2, 5]: 21%
inhibition at 0.001 µM (FGFR3; 3 h, read-out: FGFR3 % I): 46%

Compound: COCCNc1nnc(-c2ccn3c(-c4cccc(NC(=O)NCC(F)(F)F)c4)cnc3c2)s1 [Compound 288]
IC50 (Ba/F3-TEL-FGFR3 cells; [3]): 0.035 µM
inhibition at 10 µM [2, 5]: 7.8%
inhibition at 0.0003 µM (FGFR3; 3 h, read-out: FGFR3 % I): 54%

melting point: 205 °C
Compound: O=C(Nc1cccc(-c2cnc3cc(-c4nncs4)ccn23)c1)NC1CC1 [Compound 158B]

Compound: CC(=O)N1CCC(n2cc(-c3ccn4c(-c5cccc(NC(=O)NCC(F)(F)F)c5)cnc4c3)cn2)CC1 [Example 63, 1-(3-{7-[1-(1-Acetyl-piperidin-4-yl)-1H-pyrazol-4-yl]-imidazo[1,2-a]pyridin-3-yl}-phenyl)-3-(2,2,2-trifluoro-ethyl)-urea formate]
IC50 [1]: 0.05 µM
IC50 (Ba/F3-TEL-FGFR3 cells; [7]): 0.092 µM
IC50 [2, 8]: 1.4 µM
inhibition at 0.0003 µM (FGFR3; 3 h, read-out: FGFR3 % I): 50.5%

IC50 (Ba/F3-TEL-FGFR3 cells; [3]): 0.021 µM
inhibition at 0.0003 µM (FGFR3; 3 h, read-out: FGFR3 % I): 36%
Compound: CC(C)(O)c1ccc(-c2ccn3c(-c4cccc(NC(=O)NCC(F)(F)F)c4)cnc3c2)cc1 [Compound 321]
IC50 [2, 4]: 0.46 µM

melting point: 161 °C
Compound: N#Cc1cnc(-c2ccn3c(-c4cccc(NC(=O)NCC(F)(F)F)c4)cnc3c2)nc1N [Compound 165B]
